Laboratory results reported in paper PMC6545111 (Journal of medicinal chemistry, 2018).

Assays:
[1] = test system: MV4;11, MOLM-13 and RS4;11 acute leukemia cell lines; test: Cell growth inhibition, statements covering the three leukemia cell lines; type: cell-based, human
[2] = test system: BRD2, BRD3 and BRD4 proteins in RS4;11 cells; settings: for lowest concentration very effective in inducing degradation of BET proteins: 3 h treatment
[3] = test system: cleaved PARP and cleaved Caspase 3 in RS4;11 cells; test: Western blotting of cleaved PARP / caspase 3 in RS4; type: cell-based, human; settings: RS4;11 cells; for apoptosis induction revealed by cleavage of PARP: 1 and 10 nM, 24 h treatment
[4] = test system: c-Myc protein in RS4;11 cells; test: Western blotting of c-Myc in RS4; type: cell-based, human; settings: RS4;11 cells, 3 h treatment
BRD4 BD1 protein [5] = biological target: T1, BRD4 BD1 protein (Homo sapiens, UniProt O60885); test: biochemical
BRD4 BD1 protein [6] = biological target: T1, BRD4 BD1 protein; settings: for times less potent than 3 in binding to BRD4 BD1: vs compound 3
MOLM-13 cells = test: Apoptosis by flow cytometry; type: cell-based, human; settings: MOLM-13, 1–10 μM
MV4;11 cells = test: Apoptosis by flow cytometry; type: cell-based, human; settings: MV4;11, 1–10 μM
RS4;11 cells = test: Apoptosis by flow cytometry; type: cell-based, human; settings: RS4;11, 1–10 μM

4-(4-((3-Benzyl-9-methyl-4H,6H-thieno[2,3-e][1,2,4]triazolo[3,4-c][1,4]oxazepin-2-yl)ethynyl)-1H-pyrazol-1-yl)-2-(2,6-dioxopiperidin-3-yl)isoindoline-1,3-dione [Compound 26]
cell growth inhibitory activity ([1]; concentrations up to 1,000 nM, any of the three leukemia cell lines): failed to show significant cell growth inhibitory activity
degradation of BRD2, BRD3 and BRD4 proteins ([2]; up to 1,000 nM, 24 h treatment): failed to induce degradation

4-(5-(4-((3-Benzyl-9-methyl-4H,6H-thieno[2,3-e][1,2,4]triazolo[3,4-c][1,4]oxazepin-2-yl)ethynyl)-1H-pyrazol-1-yl)pent-1-yn-1-yl)-2-(2,6-dioxopiperidin-3-yl)isoindoline-1,3-dione [Compound 36]
times less potent than 35 in cell growth inhibition ([1]; three leukemia cell lines): 10–100 times

4-((2-(4-((3-Benzyl-9-methyl-4H,6H-thieno[2,3-e][1,2,4]triazolo[3,4-c][1,4]oxazepin-2-yl)ethynyl)-1H-pyrazol-1-yl)ethyl)amino)-2-(2,6-dioxopiperidin-3-yl)isoindoline-1,3-dione [Compound 28]
apoptosis induction revealed by cleavage of PARP [3]: potently induce apoptosis

4-((3-(4-((3-Benzyl-9-methyl-4H,6H-thieno[2,3-e][1,2,4]triazolo[3,4-c][1,4]oxazepin-2yl)ethynyl)-1H-pyrazol-1-yl)propyl)amino)-2-(2,6-dioxopiperidin-3-yl)isoindoline-1,3-dione [Compound 29]
times more potent than 28 in cell growth inhibition ([1]; three cell lines): 3–10 times
apoptosis induction revealed by cleavage of PARP [3]: potently induce apoptosis
lowest concentration very effective in inducing degradation of BET proteins [2]: ≤ 0.1 nM

4-((4-(4-((3-Benzyl-9-methyl-4H,6H-thieno[2,3-e][1,2,4]triazolo[3,4-c][1,4]oxazepin-2yl)ethynyl)-1H-pyrazol-1-yl)butyl)amino)-2-(2,6-dioxopiperidin-3-yl)isoindoline-1,3-dione [Compound 30]
times more potent than 29 in cell growth inhibition ([1]; each of the three leukemia cell lines): 2–3 times
lowest concentration reducing the levels of c-Myc protein [4]: ≤ 0.1 nM
apoptosis induction revealed by cleavage of PARP [3]: potently induce apoptosis
lowest concentration very effective in inducing degradation of BET proteins [2]: ≤ 0.1 nM

4-((4-((3-Benzyl-9-methyl-4H,6H-thieno[2,3-e][1,2,4]triazolo[3,4-c][1,4]oxazepin-2-yl)ethynyl)-1H-pyrazol-1-yl)methoxy)-2-(2,6-dioxopiperidin-3-yl)isoindoline-1,3-dione [Compound 27]
degradation of BRD2 and BRD3 relative to BRD4 [2]: more effectively than the BRD4 protein
relative potency in inducing degradation of BET proteins [2]: much less potent than compounds 29, 30 and 31
lowest concentration very effective in inducing degradation of BRD2, BRD3 and BRD4 ([2]; time- and dose-dependent): ≤ 10 nM

4-((5-(4-((3-Benzyl-9-methyl-4H,6H-thieno[2,3-e][1,2,4]triazolo[3,4-c][1,4]oxazepin-2-yl)ethynyl)-1H-pyrazol-1-yl)pentyl)amino)-2-(2,6-dioxopiperidin-3-yl)isoindoline-1,3-dione [Compound 31]
lowest concentration reducing the levels of c-Myc protein [4]: ≤ 0.1 nM
apoptosis induction revealed by cleavage of PARP [3]: potently induce apoptosis
lowest concentration very effective in inducing degradation of BET proteins [2]: ≤ 0.1 nM

Cc1cc2c(s1)-n1c(C)nnc1COC2 [Compound 2, 2,9-dimethyl-4H,6H-thieno[2,3-e][1,2,4]triazolo[3,4-c][1,4]oxazepine]
IC50 (BRD4 BD1 protein [5]): 4.4 ± 0.7 µM
Ki (BRD4 BD1 protein [5]): 1500 ± 200 nM

Cc1nnc2n1-c1scc(Cc3ccccc3)c1COC2 [Compound 4, 3-Benzyl-9-methyl-4H,6H-thieno[2,3-e][1,2,4]triazolo[3,4-c][1,4]oxazepine]
times less potent than 3 in binding to BRD4 BD1 (BRD4 BD1 protein [6]): 25 times

Cc1nnc2n1-c1sc(C3CCOCC3)c(Cc3ccccc3)c1COC2 [Compound 6, 3-Benzyl-9-methyl-2-(tetrahydro-2H-pyran-4-yl)-4H,6H-thieno[2,3-e][1,2,4]triazolo[3,4c][1,4]oxazepine]
times less potent than 3 in binding to BRD4 BD1 (BRD4 BD1 protein [6]): > 50 times

Cc1nnc2n1-c1sc(C#N)c(Cc3ccccc3)c1COC2 [Compound 9, 3-Benzyl-9-methyl-4H,6H-thieno[2,3-e][1,2,4]triazolo[3,4-c][1,4]oxazepine-2-carbonitrile]
times less potent than 3 in binding to BRD4 BD1 (BRD4 BD1 protein [6]): 6 times
times less potent than 8 in binding to BRD4 BD1 (BRD4 BD1 protein [6]; vs compound 8): 3 times

Cc1nnc2n1-c1sc(C#Cc3cnn(C)c3)c(Cc3ccccc3)c1COC2 [Compound 22, 3-Benzyl-9-methyl-2-((1-methyl-1H-pyrazol-4-yl)ethynyl)-4H,6H-thieno[2,3-e][1,2,4]triazolo[3,4-c][1,4]oxazepine]
PARP cleavage ([3]; 10 μM, 24 h): only marginally
apoptosis induction (MOLM-13 cells): minimal to modest effect
apoptosis induction (MV4;11 cells): minimal to modest effect
apoptosis induction (RS4;11 cells): minimal to modest effect
